Marks after values point to notes of the source that are not given here.

Test [1] deals with mouse ear acute swelling inflammation models caused by croton oil. Briefly: Mouse ear acute swelling inflammation model caused by croton oil. It counts as in vivo, Balb/c mice. As to conditions: 5 mg/kg, once a day for 3 d. How it is done:
Anti-inflammatory effects of the glycans 1 to 5 prepared in Examples 1 to 5 were evaluated, specifically as follows:
(1) Test method: experiments for evaluating pharmacodynamic activities of CS compounds in mouse ear acute swelling inflammation models caused by croton oil
Animals: Balb/c mice, male (20 g to 22 g); 8 mice per group.
Groups: model group, positive drug (indometacin) group (5 mg/kg), natural extract (CS-E) group (200 mg/kg), and glycan groups (200 mg/kg, 100 mg/kg, and 50 mg/kg). Each of the positive drug and the compounds of CS series was formulated with sodium carboxymethylcellulose at a concentration of 0.5% by mass, and stored in a refrigerator at 4° C.
Administration and test: the mice were administered for 3 d, once a day. After the last administration, an induction rate on mouse ear swelling (%) and an inhibition rate on the ear swelling degree (%) by the compounds were calculated.
Statistical analysis: the experimental results were all expressed as “mean±standard deviation”. A statistical difference between two groups was calculated and analyzed by the t-test method. * represents p<0.05, and ** represents p<0.01.

Test [2] deals with DSS-induced UC model mice. As to the kind of experiment: DSS-induced acute ulcerative colitis (UC) mouse model. It counts as in vivo, C57BL/6J mice. How it is done:
Pharmacodynamics of the Glycan 3 (referred to as SEMI5) prepared in Example 3 was evaluated on anti-DSS models, specifically as follows:
C57BL/6J mice, male (18 g to 20 g), 6 mice per group, which were purchased from Beijing Huafukang Biotechnology Co., Ltd., with a license No.: SCXK (Beijing) 2014-0004.
(1) Normal control group (control group): intragastrically administered with sodium carboxymethylcellulose at a concentration of 0.5% by mass.
(2) UC (Ulcerative colitis) model group (model group): intragastrically administered with sodium carboxymethylcellulose at a concentration of 0.5% by mass.
(3) SASP (a positive drug salazosulfapyridine) group: Shanghai Xinyi Pharmaceutical Co., Ltd. (Batch No.: 036151102), 500 mg/kg, which was formulated with sodium carboxymethylcellulose at a concentration of 0.5% by mass and stored at 4° C., and intragastrically administered once a day.
(4) SEMI5-50 group: 50 mg/kg, which was formulated with distilled water and stored at 4° C., and intragastrically administered once a day.
(5) SEMI5-150 group: 150 mg/kg, which was formulated with distilled water and stored at 4° C., and intragastrically administered once a day.
3. Experimental method After being adaptively raised for one week in an SPF animal house (experimental animal use license No.: SYXK (Beijing) 2014-0023), the C57BL/6J mice were randomly divided into 5 groups according to the above protocols. Mice in the UC model group and administration groups were modeled with DSS (MP, CA9011-18-1, US) every day according to the modeling method for ulcerative colitis that had been established in the laboratory. The normal control group (control group) and UC model group (model group) were intragastrically administered with sodium carboxymethylcellulose at a concentration of 0.5% by mass once a day. The SASP group, SEMI5-50 group, and SEMI5-150 group were intragastrically administered once a day according to the experimental protocols in the section of “Experimental groups”. 7 d after modeling, typical UC pathological changes such as obvious listlessness, activity reduction, weight loss, watery stool, and hematochezia occurred in animals of the UC model group. The experiments were terminated, and animals in each group were sacrificed. Each of evaluation indexes related with colitis was detected (as shown in the subsequent section of experimental results). The anti-UC pharmacodynamic activity of each of the compounds was evaluated comprehensively.
The animals were evaluated by the DAI scores in terms of indexes such as animal body weight loss, stool property, hematochezia. The lower the DAI score was, the closer was the condition of the animal to a normal physiological status.

The mark [3] stands for this setting: 500 mg/kg intragastrically once a day, 7 d.

As for `COc1ccc2c(c1)c(CC(=O)O)c(C)n2C(=O)c1ccc(Cl)cc1` [Indometacin, indometacin], the “Inhibition rate (%)” value in test [1] (Table 2) is 26.01%; in test [1] (Table 3) it was 27.70%; in test [1] (Table 4) it was 41.06%. Besides, the “Swelling rate (%) Mean ± SD” value in test [1] (Table 2) was 70.25 ± 20.97* %; in test [1] (Table 3), 74.43 ± 20.97* %; in test [1] (Table 4), 45.34 ± 6.92* %.
Consider `O=C(O)c1cc(/N=N/c2ccc(S(=O)(=O)Nc3ccccn3)cc2)ccc1O` [SASP, salazosulfapyridine], for which, in test [2] (500 mg/kg), the “Effect on body weight reduction vs. UC model group (in words)” value is on record as “failed to effectively alleviate the body weight reduction”, the “Effect on colon contracture vs. UC model group (in words)” value is “failed to effectively alleviate the colon contracture”, the “Effect on disease complex index DAI scores vs. UC model group (in words)” value is “improved to some extent” and the “Overall anti-UC activity (conclusion in words)” value is “exhibited a certain anti-UC activity”. For the same molecule, in test [2] (setting [3]), the “Colon contracture percentage (%)” value was determined as 31.39%, the “Colon length (cm)” value was found to be 5.29 ± 0.61 cm, the “DAI complex index inhibition rate (%)” value was 14.68* % and the “Disease activity index DAI” value amounted to 3.10 ± 0.59. The “Body weight (g) X ± SD, End” value in test [2] (500 mg/kg intragastrically once a day, end, 7 d after modeling) came to 18.76 ± 1.09 g. Also, the “Body weight (g) X ± SD, Start” value in test [2] (500 mg/kg intragastrically once a day, start of experiment) was determined as 21.97 ± 0.71 g.

Source of the values: patent US12558371B2, “Chondroitin sulfate polysaccharide, and semi-synthetic preparation method therefor and use thereof” (Institute of Materia Medica, Chinese Academy of Medical …, priority 2019, dated 2026).
